# According to patent US5814599A, “Transdermal delivery of encapsulated drugs” (Massachusetts Insitiute of Technology, priority 1995, dated 1998):
# Read-outs that look alike come from different tables or passages of the source.
# B1: γ-interferon (protein, UniProt P01579 24-161, looked up)
# Interferon gamma: QDPYVKEAENLKKYFNAGHSDVADNGTLFLGILKNWKEESDRKIMQSQIVSFYFKLFKNFKDDQSIQKSVETIKEDMNVKFFNSNKKKRDDFEKLTNYSVTDLNVQRKAIHELIQVMAELSPAAKTGKRKRSQMLFRG
# notes: γ-interferon (2500 U/ml, Genzyme Corp.), molecular weight 17,000 D
# Experiments:
# [1] = Transdermal glucose extraction by sonophoresis in vitro; type: in vitro ADME, human; conditions: for glucose concentration attained in the donor compartment: 10 minutes sonophoresis; for glucose concentration in the donor compartment as percent of that in the receiver compartment: 20 KHz, 125 mW/cm^2, continuous
# Experimental: Transdermal transport of a ^14 C labeled (New England Nuclear) as well as non-labeled (Sigma Chemicals) was studied in the presence as well as in the absence of low-frequency ultrasound. The permeability experiments were performed in vitro using human cadaver skin obtained from local hospitals. […] The Franz diffusion cell consists of two compartments, the donor and the receiver compartments, with the stratum comeum facing the donor compartment. […] The donor and receiver compartments were then clamped. The receiver compartment was filled Phosphate Buffer Saline (PBS, phosphate concentration=0.01M, NaCl concentration=0.137M) (Sigma Chemicals Co.) The donor compartment was filled with a solution of either radiolabelled glucose (1 mCi/ml) or non-labeled glucose (concentration in the range of 50 mg/dL to 300 mg/dL) in separate experiments. The concentration of the permeant in the receiver compartment was measured every 5 minutes using a scintillation counter (model 2000 CA, Packard) in the case of radiolabelled glucose and using a commercially available kit (Sigma Chemicals) in the case of unlabeled glucose.
# Ultrasound was applied using a sonicator (VCX 400, Sonics and Materials) operating at a frequency of 20 KHz. The ultrasound intensity was measured using a hydrophone (Model 8106, Bruel and Kjaer).
# Additional experiments were performed to assess whether the amount of glucose transported by sonophoresis is proportional to the glucose concentration in the […]. In separate experiments, glucose concentration in the receiver solution was varied from 50 mg/dL to 350 mg/dL (typical variation in the blood glucose level of a diabetic patient) and performed sonophoresis using ultrasound (20 KHz, 125 mW/cm^2, continuous) for 10 minutes. […] The line shown in FIG. 3B represents the best fit.
# hairless rats [2] = assay: Transdermal glucose extraction by sonophoresis in vivo; set-up: species or system rat; conditions: 20 KHz, 62.5, continuous, 1 minute
# Experimental: In vivo experiments were performed to assess the efficacy of sonophoresis across living skin. […] The hairless rats were anesthetized with a mixture of ketamine (60 mg/kg) and xylazine (10 mg/kg). After about an hour in anesthesia, a flanged glass cylinder (Crown Glass Company, diameter 20 mm, height 2 cm) was glued on the rat's back using a minimal amount of superglue (Permabond International) or vacuum grease (Dow Chemicals) on the outer edge of the flange. The center of the cylinder was located about 3 cm from the rear end of the rat. This particular site was chosen to avoid application of ultrasound directly on a sharp bone close to the body surface, which otherwise might have caused damage to the blood capillaries near the edge of the bone. The cylinder was filled with PBS (phosphate concentration=0.01M, NaCl concentration=0.137M) (Sigma Chemicals Co.). […] The concentration of glucose in PBS was measured using an assay kit (Sigma Chemicals).
# [3] = Experimental: (§1) Materials and methods: In vivo as well as in vitro experiments were performed to study the effect of low-frequency ultrasound on the transport of insulin across the skin. In vitro experiments were performed using human cadaver skin. The skin was heat stripped by keeping it in water at 60° C. for two minutes followed by the removal of the epidermis. It was then stored at 4° C. in a humidified chamber. A piece of epidermis was taken out from the chamber prior to the experiments and was mounted on the Franz diffusion cell (Crown Bioscientific Co.) which consists of two compartments, the donor and the receiver compartment. […] The human cadaver epidermis (separated from the dermis by heat-treatment) is mounted between the two compartments and is supported by a Nylon mesh (Tetko Inc.) to avoid any damage. The skin was supported by a nylon mesh (Tetko Inc.) in order to a mimic the fact the skin in vivo is supported by mechanically strong dermis. The compartments were then clamped together. The receiver compartment was filled with 2%. BSA (Sigma Chemicals) solution in PBS (Sigma Chemicals) and the donor solution was filled with 100 U/ml solution of human recombinant insulin (Humulin Regular). The ultrasound intensity, I, (Spatial Average Temporal Peak) was calculated from the values of the acoustic pressure amplitude, P, measured using a hydrophone (Bruel and Kjaer) using the equation, I=P^2 /2.rho.c, where .rho. is the water density (1 gm/ml), and c is the velocity of ultrasound in water [1500 m/s].
# [4] = remark: listed apart in the source
# Experimental: as §1
# Ultrasound was turned ON at a frequency of 20 KHz, an intensity varying in the range of 0 to 1 W/cm^2 and 10% duty cycle. Samples (200 μl) were taken from the receiver compartment every hour to measure the concentration of insulin in the receiver compartment. The samples were immediately frozen and were stored at -20° C. till they were analyzed by RIA (Linco Research Co.). Ultrasound was typically applied for 4 hours and was then turned OFF. Transdermal insulin flux was followed for next two hours.
# [5] = In vitro skin permeability to proteins in the presence of ultrasound (Franz diffusion cell); type: in vitro ADME, human
# Experimental: To assess whether application of ultrasound enhances transdermal protein flux, the skin permeability to these proteins in the presence of ultrasound in vitro across human cadaver epidermis in a Franz Diffusion Cell (Crown Glass Company) was measured. […] The concentration of proteins in the receiver compartment was measured every hour either by RIA or ELISA. The insulin concentration in the receiver compartment was measured every hour by Radioimmuno Assay (performed at Linco Research Inc., St. Charles). The γ-interferon concentration was measured using ELISA methods developed by Endogen Inc, and the erythropoeitin concentration was measured by ELISA (performed at ARUP, Salt Lake City). Skin permeabilities to proteins were calculated using the transdermal fluxes measured during the first hour. The transdermal flux can be calculated using the equation, J=DM/.increment.t, where .increment.M is the amount of protein transported per unit skin area during time .increment.t. The skin permeabilities, P, can be calculated from the transdermal flux, J, during the first hour of ultrasound application using the equation, P=J/.increment.C, where .increment.C is the concentration difference across the skin.
# hairless rats [6] = assay: In vivo insulin sonophoresis, blood glucose level of normal hairless rats; conditions: for amount of insulin delivered: 225 mW/cm^2, area 3 cm^2; for blood glucose level after ultrasound exposure: normal rats, from about 250 mg/dl
# Experimental: Materials and Methods: In vivo experiments were performed using hairless rats (Charles River). The rats were kept in quarantine to insure good health. On the day of experiment, they were taken out of the cages, anesthetized using a mixture of ketamine (90 mg/kg) and xylazine (10 mg/kg). After about an hour into anesthesia, a glass chamber was glued to the back of the rat using superglue (Permeabond). The glass chamber was filled with 100 U/ml solution of insulin and ultrasound (frequency of 20 KHz, intensity in the range of 0 to 1 W/cm^2, 100 msec pulses applied every second) was applied. The blood glucose level was measured every 30 minutes. Ultrasound was typically turned OFF after 1 hour, although the measurements of the blood glucose were continued for the next three hours.
# To estimate the amount of insulin penetrating the hairless rat skin during sonophoresis at the various intensities reported in FIG. 2A, various known amounts of insulin in the range of 0 to 1 U subcutaneously (most commonly used method of insulin administration today) in normal rats. The blood glucose levels of these rats were then compared with those of the normal rats undergoing sonophoresis.
# In order to estimate the dependence of the amount of insulin delivered on ultrasound exposure time (in vivo), insulin-sonophoresis experiments (20 KHz, […], 100 msec pulses applied every second) were performed on normal rats for different exposure times in the range of 1 minute to 1 hour.
# diabetic hairless rats = assay: In vivo insulin sonophoresis, blood glucose level of diabetic hairless rats; set-up: species or system rat; conditions: in 30 minutes, 20 KHz
# Experimental: The blood glucose level was measured every 30 minutes.
# [7] = diabetic hairless rats
# [8] = within 2 hours after turning ultrasound OFF
molecule,measurement,setting,value
O=C[C@H](O)[C@@H](O)[C@H](O)[C@H](O)CO [glucose],glucose concentration attained in the donor compartment,[1]; receiver compartment 50 mg/dL,0.5 mg/dL
same,glucose concentration attained in the donor compartment,[1]; receiver compartment 350 mg/dL,6.5 mg/dL
same,glucose concentration in the donor compartment as percent of that in the receiver compartment,[1]; after 5 minutes of sonophoresis,about 0.5%
same,glucose concentration in the donor compartment as percent of that in the receiver compartment,[1]; after 10 minutes of sonophoresis,about 2%
same,glucose concentration in the reservoir after extraction,hairless rats [2]; rat blood glucose 450 mg/dL,1 mg/dL
same,glucose concentration in the reservoir after extraction,hairless rats [2]; rat blood glucose about 200 mg/dL,0.2 mg/dL
O [water],water permeability enhancement,"[3]; during sonophoresis, 20 KHz, 125 mW/cm^2, 100 msec pulses every second",100 fold
same,recovery of water permeability enhancement,[3]; [8],about 94 (±3) %
same,recovery of water permeability enhancement,[3]; within 15 hours after turning ultrasound OFF,98 (±1) %
insulin,transdermal insulin flux before ultrasound,[4]; before ultrasound turned ON,below the detection limit
same,insulin dose that could be delivered from a patch,"[4]; flux 100 mU/cm^2 /hr, patch area 100 cm^2",about 13 U/h
same,transdermal insulin flux after turning ultrasound OFF,[4]; three hours after turning ultrasound OFF,statistically insignificant
same,transdermal insulin flux,"[4]; ultrasound 20 KHz, 125 mW/cm^2, 10%, reached in about 1 hour, almost constant while ultrasound ON, donor 100 U/ml",about 100 mU/cm^2 /hr
same,transdermal insulin permeability without ultrasound,[4]; ultrasound intensity = 0 (FIG. 1B),impermeable
same,transdermal insulin flux after turning ultrasound OFF,[4]; [8],below our detection limit
same,dose deliverable from a transdermal patch by sonophoresis,"[5]; patch area 40 cm^2, donor 100 U/ml insulin, 3×10^7 γ-interferon, 3×10^5 U/ml erythropoeitin",about 12 U/h
same,human skin permeability,"[5]; ultrasound 20 KHz, 225 mW/cm^2, 100 msec pulses every second, first hour",3.3×10^-3 (±35%) cm/h
same,blood glucose level upon 1 hour insulin-ultrasound treatment,"hairless rats [6]; 20 KHz, 100 msec pulses every second, intensities 0 to 225 mW/cm^2",intensity dependent decrease
same,amount of insulin delivered,hairless rats [6]; 10 minute ultrasound application,about 100 mU
same,amount of insulin delivered,hairless rats [6]; 1 hour ultrasound exposure,about 1 U
same,blood glucose level after ultrasound exposure,"hairless rats [6]; 10 minute exposure, 20 KHz",about 150 mg/dl
same,blood glucose level after ultrasound exposure,"hairless rats [6]; 1 hour exposure, 20 KHz",about 30 mg/dl
same,subcutaneous insulin dose inducing a similar decrease in blood glucose level,hairless rats [6]; sonophoresis 1 hour at 62.5 mW/cm^2,100 mU
same,subcutaneous insulin dose inducing a similar decrease in blood glucose level,hairless rats [6]; sonophoresis 1 hour at 225 mW/cm^2,1 U
same,blood glucose level after insulin-ultrasound treatment,"diabetic hairless rats; diabetic hairless rats, from about 400 mg/dl, 225 mW/cm^2, 100 msec pulses every second",200 mg/dL
same,blood glucose level after insulin-ultrasound treatment,"diabetic hairless rats; diabetic rat, from 400 mg/dl, 125 mW/cm^2, 100 msec pulses every second",200 mg/dL
same,level of transdermally delivered human insulin in rat plasma,[7]; after 30 minutes of sonophoresis,77 (±28) picomolar
same,level of transdermally delivered human insulin in rat plasma,[7]; after 1 hour of sonophoresis,178 (±84) picomolar
erythropoeitin,dose deliverable from a transdermal patch by sonophoresis,[5],about 140 U/h
same,human skin permeability,[5],9.8×10^-6 (±40%) cm/h
B1,dose deliverable from a transdermal patch by sonophoresis,[5],about 5×10^6 U/h
same,human skin permeability,[5],8×10^-4 (±22%) cm/h
